Data on one molecule can be found in patent publication EP0819136B1, “MDP DERIVATIVES AND CONJUGATES HAVING HAEMATOPOIETIC FUNCTION STIMULATING ACTIVITY, AND COMPOSITIONS CONTAINING SAME” (VACSYN S.A., priority 1995, dated 1996).

For assay [1], the system named is CSH. Description: CSH mobilisation in cyclophosphamide-treated mice after oral AZT, MDM or both (Example 6, figure 13). Type of assay: in vivo, souris. Particulars: cyclophosphamide 200 mg/kg s.c. day 0; oral MDM 25 mg/kg alone days 0, 1, 2, 3. The method, then:
La figure 13 représente une expérience similaire sur des souris normales qui ont préalablement reçu un traitement par une drogue cytotoxique : la cyclophosphamide.
L'effet du traitement ci-dessus pour compenser l'effet cytotoxique des chimiothérapies a été étudié en traitant les souris par le cyclophosphamide.
Les souris traitées par une simple injection sous-cutanée de cyclophosphamide (dose de 200 mg/kg) au jour 0 ont été ensuite divisées entre 4 groupes et ont reçu oralement, outre de l'eau physiologique (X), de l'AZT à 50 mg/kg (□), du MDM à 25 mg/kg (Δ) ou du mélange de ceux-ci (O). Le traitement oral a été effectué aux jours 0, 1, 2 et 3 et les numérations cellulaires ont été évaluées jusqu'à 14 jours après le commencement du traitement. Les résultats sont indiqués dans la figure 13. Là-encore, il apparaît évident qu'une très forte mobilisation a lieu surtout en présence du mélange d'AZT et de MDM.

For assay [2], the system named is CSH. The assay can be described thus: Circulating CSH at different stages of differentiation, colony cultures of blood mononuclear cells from treated mice (Example 7, figures 14a-d). Type of assay: in vivo, souris (10 Balb/c par groupe). Particulars: once daily for three consecutive days, MDM 25 mg/kg with or without AZT 50 mg/kg; blood collected 24 h after the last administration. An excerpt: Ces expériences ont pour objet la mise en évidence des différentes populations de CSH présentes dans le sang circulant.
Ont été recherchés les stades suivants depuis les plus primitifs décelables en culture et qui ne présentent aucun signe de différenciation comme les CFAC (Coblestone Area Forming Cells) et LTC-IC (Long Term Culture - Initiating Cells) jusqu'au GM-CFU (Granulocyte Macrophage - Colony Forming Units) en passant par des stades intermédiaires comme les HPP et LPP-CFU (respectivement High Proliferating Potential and Low Proliferating Potential CFU). Dans tous les cas, les conditions de cultures, en particulier leur durée, ont été choisies pour permettre une détection optimale des différentes populations considérées.
Ont été comparés pour cette étude l'effet de l'injection de saline (X-), d'AZT à 50 mg/kg, du MDM à 25 mg/kg et le mélange des deux sur le nombre de CSH cirulants. Les cellules mononucléaires après purification ont été cultivées pendant 5 jours pour dénombrer les GM-UFC (pour granulocytes - macrophages unités formant colonies), pendant 28 jours pour dénombrer les unités formant colonies à bas potentiel prolifératif (LPP) et les UFC à haut potentiel prolifératif (HPP). Les CAFC ont été dénombrés après 14 jours de culture. Les LTC-IC après 28 jours. Les résultats sont présentés sur les figures 14a, 14b, 14c et 14d respectivement. […]

Assay [3] concerns leucocytes et de neutrophiles circulants. Description: Leucocyte, neutrophil and myelocyte counts after oral Muradimétide with non-myelotoxic or myelotoxic i.v. AZT (Example 8, figures 1-3). Particulars: Muradimétide 25 mg/kg p.o. 4 h before AZT 5 or 40 mg/kg i.v., days 0-3; time after start of treatment. Type of assay: in vivo, souris Swiss femelles. As for the experimental part:
La figure 1 montre l'effet d'un traitement per os des souris avec du Muradimétide en association avec des doses d'AZT non myélotoxiques (5 mg par kg) (Fig 1A) ou myélotoxiques (40mg par kg) (Fig 1B) sur le changement des leucocytes circulants.
La figure 2 représente le même type de courbe sur la numération des neutrophiles; la figure 2A représente une expérience réalisée avec une dose non myélotoxique d'AZT (5 mg par kg) et la figure 2B avec une dose myélotoxique d'AZT (40 mg par kg).
La figure 3 représente le même type de courbe sur la numération des myélocytes. La figure 3A se rapporte à une dose non myélotoxique d'AZT (5mg/kg) et la figure 3B à une dose myélotoxique (40 mg/kg).
Cet effet est indiqué sur les figures 1 et 2, les figures 1A et 2A représentant une dose non myélotoxique d'AZT et les figures 1B et 2B représentant une dose myélotoxique d'AZT.
Dans cette expérience, des souris Swiss femelles ont été injectées par voie intra-veineuse avec de l'AZT à la dose de 5 ou de 40 mg par kg aux jours 0, 1, 2 et 3. Sur chacun des 4 jours et 4 heures avant l'administration d'AZT, des groupes de souris constitués de 5 individus ont reçu per os soit du tampon soit du Muradimétide à la dose de 25 mg par kg.
Les comptages cellulaires sont effectués aux jours 0, 1, 2, 3, 4 et 7. […]

Take `COC(=O)CC[C@@H](NC(=O)[C@H](C)NC(=O)[C@@H](C)O[C@H]1[C@H](O)[C@@H](CO)OC(O)[C@@H]1NC(C)=O)C(=O)OC` (stereo partly drawn) [Muradimétide, Nac-Mur-L-Ala-D-Glu-[OCH3]-OCH3]: the “numération des neutrophiles circulants” value in assay [1] is listed as “effet similaire mais nettement moins marqué”. The “nombre de CSH circulants (GM-CFU, LPP-CFU, HPP-CFU)” value in assay [2] is given as “apparaît clairement”. The “temps de l'effet maximum (leucocytes, neutrophiles, myélocytes)” value in assay [3] is on record as 4 jours.
